The melting point is the temperature of the solid-liquid transition.

Molecule `COc1ccc(CC(=O)NCCc2cccc3c2OCO3)cc1OC` had a melting point of 124 °C. With `CNc1c(C2=CC(C)(C)Oc3ccc(C#N)cc32)c(=O)c1=O` the figure was 193 to 194 °C; with `O=C(OCc1ccccc1)C1C(=O)N(Cc2ccc(Cl)c(Cl)c2)C(=O)c2cccn21` (stereo unspecified), 104 to 106 °C. For `CCNc1nc2ccc(OC(F)(F)F)cc2s1` the value was 135 °C. With `CC(C)Nc1n[nH]c2nc(Oc3ccc(F)cc3F)ncc12`, the melting point is 211 to 214 °C.

Regarding `Cc1nc2nc(/C=C3/C(=O)N4C(C(=O)O)=CS[C@H]34)nn2c2c1CCCC2`, the melting point came out at 250 °C. For `CN(C)C(=O)N1CCC(Oc2ccc(C(F)(F)F)cc2)(c2ccccc2)CC1` the value was 158 to 160 °C; for `CC1(C(=O)O)CCc2onc(-c3ccc(Cl)cc3)c2CC1` (stereo unspecified), 163 °C; for `O=C1NC(=O)C(CC#Cc2ccc(Cl)cc2)(Sc2nc3cc(Cl)ccc3s2)S1` (stereo unspecified), 187 to 188 °C.

`Nc1nc2c(c(=O)[nH]1)n(Cc1ccccc1)c(=O)n2C1OC(CO)C(O)C1O` (stereo unspecified) registered a melting point of 175 °C. With `CC(C)N(CCSc1ccc(Cl)cc1)C(=O)Oc1ccccc1` the figure was 54 to 56 °C; with `CN1CN=C2C=C(Nc3ccc(I)cc3F)C(F)(C(N)=O)C=C21` (stereo unspecified), 265 to 268 °C; with `C=C1N(CCCC)C(=O)OC12CCN(CCC=C(c1ccc(Cl)cc1)c1ccc(Cl)cc1)CC2`, 110 to 111 °C.

On to `CCOC(=O)N[C@@H]1CCc2ccccc2[C@H]1Nc1ccccc1CO` (relative stereo), for which the melting point lay in the range of 134 to 135 °C. With `CCN(CC)CCNC(C(=O)NC(C)(C)C)c1ccccc1` (stereo unspecified), the melting point lay in the range of 50 to 52 °C. `CN(c1ccc(Br)cc1)S(=O)(=O)c1cccc(C(=O)Nc2ccc(Cl)cc2F)c1` yielded a melting point of 117 to 118 °C. With `COC(=O)c1cc2c(Nc3ncccn3)cccc2s1` the figure was 206 to 208 °C. With `CS(=O)(=O)c1cc([N+](=O)[O-])c(C(N)=O)cc1N1CC1` the figure was 222 to 224 °C; with `O=C(O)C=CC(=O)Nc1ccc2ncnc(Nc3cccc(Br)c3)c2c1`, 224 to 225 °C; with `Cc1cc(C)n(C)c(=O)c1C(=O)O`, 200 to 204 °C.

`Cc1ccccc1CC(Cc1ccccc1C)C(=O)O`: the melting point lay in the range of 94 to 96 °C.

The molecule `O=C(c1cc2ccnc(Cl)c2[nH]1)N1CCSCC1` had a melting point of 62 to 72 °C.

Consider `CN(C)c1cc2nc(C(C)(C)C)sc2cc1N`, for which the melting point was 169 °C. For `C#CCN1C(=O)C2CC2(c2ccc(N)cc2)C1=O` (stereo unspecified) the value was 106 to 109 °C; for `O=C(Nc1cccc(Br)n1)Nc1cccc2c1C1CC3(CCN1C2=O)SCCS3` (stereo unspecified), 170 °C; for `CS(=O)(=O)c1nc(N)c2ncn(C3CCCCC3)c2n1`, 272 to 274 °C. `CC(=O)c1cc2cc(O)c(Cl)c(Cl)c2s1` displayed a melting point of 199 to 201 °C.

For the molecule `O=C1CC(COC(c2ccccc2)(c2ccccc2)c2ccccc2)=NC=C1OCc1ccccc1`, the melting point fell in the range of 233 to 235 °C.

As for `COc1ccc2[nH]c3c(c2c1)CC(=O)Nc1cccnc1-3`, the melting point was more than 330 °C.

On to `O=c1[nH]c2cc(Cl)c(Cl)cc2n1CCCO`, for which the melting point is 175 °C. Take `O=C(NC(=O)N1C(=O)Cc2ccccc21)c1ccccc1`: the melting point amounted to 184 °C. For `CCc1c(-c2ccccc2)c2c(COCCCN3CCCCC3)cc3c(O)ccc1n32`, the melting point lay in the range of 93 to 99 °C. In turn, `Oc1ccc2nc(-c3cccc(Br)c3)oc2c1` returned a melting point of 248 °C.

For `O=C(C1CCCCC1)N1CCN2C(=O)c3ccccc3C2C1=O` (stereo unspecified), the melting point is 167 to 172 °C.

In turn, `CCOC(=O)CN(C(=O)CN1C(=O)c2ccccc2C1=O)c1ccc(Cl)c(COc2cccc3ccc(C)nc23)c1Cl` had a melting point of 211 to 213 °C. With `C=CC1CC1(C(C)=O)C(=O)Nc1ccccc1` (stereo unspecified) the figure was 104 to 105 °C.

As for `CCCc1ncc(CN2C(=O)c3ccccc3C2=O)s1`, the melting point came to 72 °C. Consider `CCCc1c(OCCC(C)Br)ccc(C(C)=O)c1O` (stereo unspecified), for which the melting point lay in the range of 53 to 55 °C.

Regarding `Cc1ncc(C=S)c(Nc2ccccc2)n1`, the melting point amounted to 106 °C. For `O=C(O)c1sc(Cl)nc1C(F)(F)F` the value was 131 to 132 °C; for `O=S(Cc1ccccc1)c1ccccc1` (stereo unspecified), 123 to 126 °C. `CC(C#Cc1ccc(C(=O)O)c(O)c1)c1ccc2c(c1)C(C)(C)CCC2(C)C` (stereo unspecified) displayed a melting point of 191 to 192 °C.

With `Cc1nc(-c2ccc(C#N)cc2)sc1C(=O)N[C@H](C)[C@](O)(Cn1cncn1)c1ccc(Cl)cc1Cl`, the melting point is 109 to 113 °C. For `COc1c(C)sc2nc(SCc3ccccc3)nn12` the value was 101 to 103 °C. Take `COc1ccc(OC)c(CN2CCc3cc(O)ccc3C2)c1`: the melting point is 178 to 192 °C. With `CCCCN(CC(=O)O)S(=O)(=O)c1ccc(N2CCC(NC[C@H](O)c3ccc(O)c(NS(C)(=O)=O)c3)CC2)cc1` the figure was 125 to 138 °C; with `COc1ccc2nc(S(=O)Cc3nccc(OCC(F)(F)F)c3OC)[nH]c2c1` (stereo unspecified), 36 to 46 °C.

Consider `O=c1ccnc(NCCCN(Cc2ccccc2Cl)c2ccccn2)[nH]1`, for which the melting point was 153 to 154 °C. For `O=C(Nc1ccc(N2CCCC2)nc1)c1cc2ccc(C(F)(F)F)nc2n1Cc1cccc(F)c1` the value was 204 to 205 °C. With `CCOC(=O)C1=Cc2cc(C(F)(F)C(F)(F)F)ccc2OC1C(F)(F)F` (stereo unspecified) the figure was 162 to 165 °C. For `O=C(O)CCN1C(=O)c2ccc(C(=O)O)cc2C1=O` the value was 240 to 242 °C; for `Cn1ccc2cc(C(=O)NN)ccc21`, 140 to 141 °C; for `CCOC(=O)Cc1c(-c2ccccc2)c2cc(COC(C)=O)c(COC(C)=O)cc2oc1=O`, 95 to 96 °C. In turn, `OC1CCCCC1Oc1cccc(COc2cccc3cccnc23)c1` (stereo unspecified) yielded a melting point of 109 to 110 °C.

Molecule `Oc1ccc(OCc2ccccc2)c2c1OCCO2` showed a melting point of 131 °C. With `COc1ccc(C=Nc2ccccc2SCc2ncon2)cc1OC` the figure was 146 °C; with `N#Cc1nc2ccccc2n(-c2ccc(Cl)cc2)c1=O`, 232 to 235 °C. For `NCc1nnc(-c2ncn3c2[C@@H]2CCCN2C(=O)c2sccc2-3)o1` the value was 214 to 216 °C; for `C#Cc1cccc(-c2cccnc2F)c1`, 45 to 47 °C. With `COc1cccc(-c2cc(C)cc3c2OC(CN)C3)c1OC` (stereo unspecified), the melting point is 97 to 99 °C.

Take `Cc1cc(OC(F)(F)F)ccc1NC(=O)c1cccc(I)c1C(=O)NC(C)CC(=O)N(C)C` (stereo unspecified): the melting point stood at 104 °C. With `COc1cc2c(cc1OC)C(O)=C(c1cc(OCc3ccccc3)ccc1[N+](=O)[O-])C2=O`, the melting point was found to be 120 °C. With `CN1CCN(Cc2ccccc2Cl)C(C(=O)NCCCl)C1` (stereo unspecified) the figure was 74 to 75 °C; with `CCCCc1ccc(NC(=O)CN(C)C)c(N)c1`, 66 to 68 °C. Molecule `COC(=O)Nc1ccc(-c2ncon2)cc1` returned a melting point of 174 to 176 °C. As to `CC(C)CC1(C(CCN2C(=O)c3cccc(F)c3C2=O)C(=O)NO)CCN(CCc2ccccc2)C1=O` (stereo unspecified), the melting point is 145 to 146 °C.

In turn, `O=C(NC1CCN(CCc2ccc(F)cc2)C1)C12CC3CC(CC(C3)C1)C2` (stereo unspecified) registered a melting point of 114 to 116 °C. With `Oc1ccc2nc(-c3ccc4ccccc4c3)oc2c1` the figure was 226 °C; with `CCOc1ccc2nc(C)cc(=O)n2c1C`, 112 to 114 °C. For `CCCc1c(OCC#CCSCCO)ccc(C(C)=O)c1O` the value was 52 to 53 °C; for `CCCCCCCC(=O)N(C)Cc1cc(-c2ccc(C=C3SC(=O)NC3=O)cc2)ccc1OCc1ccccc1`, 158 °C. For `CCc1cc(C)cc(CC)c1C1C(=O)C2=CC(COCOC)CC2C1=O` (stereo unspecified) the value was 155 to 156 °C; for `CN(CC(O)(CO)c1ccccc1)S(=O)(=O)c1ccc(Cl)cc1` (stereo unspecified), 122 to 123 °C.

On to `O=C1c2ccc(Cl)cc2CC1S(=O)(=O)c1ccccc1` (stereo unspecified), for which the melting point was 133 °C. With `COc1ccccc1N1CCN(Cc2ccccc2)CC1=O` the figure was 109 to 111 °C; with `CC(=O)c1cc([N+](=O)[O-])c2c(c1)C(C)(C)CCO2`, 117 to 119 °C; with `NS(=O)(=O)c1cc2c(cc1Cl)C(O)N(C1CCN(Cc3cccc(C(F)(F)F)c3)CC1)C2=O` (stereo unspecified), 204 to 205 °C.

Regarding `Cc1oc(-c2ccccc2)nc1COc1ccc(Sc2nc(CC(=O)O)cs2)cc1`, the melting point was in the range of 180 to 181 °C. With `CC(=O)Oc1c(C)nc(N)nc1C(C)C` the figure was 141 to 142 °C; with `COc1ccc(N2CCN(Cc3coc4ccccc34)CC2)cc1`, 110 to 112 °C; with `CC(=O)Nc1ccc(OC(F)(F)F)cc1-c1ccccc1`, 94 °C. For `CC(CCCCCOCCc1ccccc1)NCC(O)c1ccc2c(n1)COC(c1ccccc1)O2` (stereo unspecified) the value was 61 to 67 °C; for `FC(F)(F)C1(c2cc(Cl)cc(Cl)c2)CC(c2ccc(Br)cc2)=NO1` (stereo unspecified), 122 to 124 °C; for `OCc1c(Cl)cc(Cl)c2ccc(Cl)cc12`, 107 to 112 °C.

As for `COc1ccc2c(c1)CCC1CC(=O)N(c3ccccn3)N=C21` (stereo unspecified), the melting point lay in the range of 194 to 196 °C. For `CCCn1c(C)nn(-c2ccc(N3CCN(c4ccc(OC)cc4)CC3)cc2)c1=O` the value was 202 °C; for `O=C1NC(=O)C2(N1)C1CC3CC(C1)CC2C3` (stereo unspecified), 290 to 293 °C.

With `O=C1[C@H]2CCC[C@H]2N(C(=O)Cn2ccnc2)c2ccccc2N1Cc1ccccc1` (relative stereo), the melting point lay in the range of 183 to 184 °C. For `COc1ccccc1NC(=O)Nc1nc(Oc2ccc3ccccc3c2)nc(N(C)CCC(=O)O)n1` the value was 178 to 180 °C.

`Cc1cccc(-c2cnc3c(N)ncnc3n2)c1`: the melting point lay within 248 to 250 °C.

`C[Si](C)(C)O[C@@H]1C(=O)N[C@@H]1c1ccccc1` (relative stereo) gave a melting point of 118 to 120 °C.

Values taken from a melting point compilation (Tetko et al.; mined from patent text by program, amines drawn as free bases though some values may be those of a salt).
